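Interpolation was linear, between the two tested concentrations surrounding the appropriate level; five concentrations were tested over 48 hours in 96-well plates. GI50 = concentration required for 50% inhibition of growth.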 The source made the active and inactive calls. Rule as the data show it: active = GI50 up to about 1.1 µM and inactive = higher.
How the values were obtained:
Assay in all cases: NCI-60 cell line screen, 48 h
RPMI-8226 = system: RPMI-8226
K562 = system: K562
SK-MEL-2 = system: SK-MEL-2
MOLT-4 = system: MOLT-4
PC-3 = system: PC-3
Hs-578T = system: Hs-578T
SNB-19 = system: SNB-19
SW-620 = system: SW-620
786-0 = system: 786-0
NCI-H522 = system: NCI-H522
A549 = system: A549
OVCAR-8 = system: OVCAR-8
SN12C = system: SN12C
NCI-H23 = system: NCI-H23
NCI-H226 = system: NCI-H226
UACC-257 = system: UACC-257
SK-MEL-28 = system: SK-MEL-28
RXF 393 = system: RXF 393
MCF7 = system: MCF7
KM12 = system: KM12

Measured: GI50

CCCCCCCCOCC1S(=O)(=O)OCCOS1(=O)=O
inactive: RPMI-8226 > 100 µM | K562 > 100 µM | SK-MEL-2 > 100 µM | MOLT-4 > 100 µM | PC-3 > 100 µM | Hs-578T > 100 µM | SNB-19 > 100 µM | SW-620 > 100 µM | 786-0 > 100 µM | NCI-H522 > 100 µM | A549 > 100 µM | OVCAR-8 > 100 µM | SN12C > 100 µM | NCI-H23 > 100 µM | NCI-H226 > 100 µM | UACC-257 > 100 µM | SK-MEL-28 > 100 µM | RXF 393 > 100 µM

CC(C)(C)OC(=O)N[C@H]1CCN(C2CCCCC2)C1=O
inactive: RPMI-8226 > 100 µM | MCF7 > 100 µM | K562 > 100 µM | SK-MEL-2 > 100 µM | MOLT-4 > 100 µM | PC-3 > 100 µM | Hs-578T > 100 µM | SNB-19 > 100 µM | SW-620 > 100 µM | 786-0 > 100 µM | A549 > 100 µM | OVCAR-8 > 100 µM | SN12C > 100 µM | NCI-H23 > 100 µM | NCI-H226 > 100 µM | SK-MEL-28 > 100 µM

O=[N+]([O-])C(/C(Cl)=C(/Cl)N1CCOCC1)=C1\NCCO1
inactive: RPMI-8226 > 100 µM | MCF7 > 100 µM | SK-MEL-2 > 100 µM | MOLT-4 > 100 µM | PC-3 > 100 µM | Hs-578T > 100 µM | SNB-19 > 100 µM | SW-620 > 100 µM | 786-0 > 100 µM | A549 > 100 µM | OVCAR-8 > 100 µM | SN12C > 100 µM | NCI-H23 > 100 µM | NCI-H226 > 100 µM | UACC-257 > 100 µM | SK-MEL-28 > 100 µM | KM12 > 100 µM

O=C1Nc2ccccc2C1S(=O)(=O)c1ccccc1 (centres undefined)
inactive: RPMI-8226 > 100 µM | K562 > 100 µM | SK-MEL-2 > 100 µM | MOLT-4 > 100 µM | PC-3 > 100 µM | Hs-578T > 100 µM | SNB-19 > 100 µM | SW-620 > 100 µM | 786-0 > 100 µM | NCI-H522 > 100 µM | A549 > 100 µM | OVCAR-8 > 100 µM | SN12C > 100 µM | NCI-H23 > 100 µM | NCI-H226 > 100 µM | UACC-257 > 100 µM | SK-MEL-28 > 100 µM | RXF 393 > 100 µM | KM12 > 100 µM

COc1cccc(CCCNC(=O)Cc2cc(OC)c(OC)cc2CO)c1
inactive: K562 > 100 µM | SK-MEL-2 > 100 µM | MOLT-4 > 100 µM | PC-3 > 100 µM | Hs-578T > 100 µM | SNB-19 > 100 µM | SW-620 > 100 µM | 786-0 > 100 µM | A549 > 100 µM | OVCAR-8 > 100 µM | SN12C > 100 µM | NCI-H23 > 100 µM | NCI-H226 > 100 µM | UACC-257 > 100 µM | SK-MEL-28 > 100 µM | KM12 > 100 µM

CCSC1=N/C(=C\c2ccco2)C(Cl)=N1
inactive: RPMI-8226 > 100 µM | MCF7 > 100 µM | K562 > 100 µM | SK-MEL-2 > 100 µM | MOLT-4 > 100 µM | PC-3 > 100 µM | Hs-578T > 100 µM | SNB-19 > 100 µM | SW-620 > 100 µM | 786-0 > 100 µM | A549 > 100 µM | OVCAR-8 > 100 µM | SN12C > 100 µM | NCI-H23 > 100 µM | NCI-H226 > 100 µM | UACC-257 > 100 µM | SK-MEL-28 > 100 µM | KM12 > 100 µM

N#Cc1c(N2CCN(c3ccc([N+](=O)[O-])cc3)CC2)[n+]([O-])c2ccc(-c3ccc([N+](=O)[O-])cc3)cc2[n+]1[O-]
inactive: RPMI-8226 5.02 µM | MCF7 > 100 µM | K562 5.26 µM | SK-MEL-2 > 37.2 µM | PC-3 2.55 µM | Hs-578T > 75.2 µM | SNB-19 9.18 µM | SW-620 35.2 µM | 786-0 > 47.8 µM | A549 2.49 µM | OVCAR-8 1.62 µM | NCI-H23 > 31 µM | NCI-H226 33 µM | UACC-257 16.4 µM | SK-MEL-28 > 89.3 µM | KM12 > 83.6 µM

COC(=O)/C=C\COCC1C2CCC(=O)C21 (centres undefined)
inactive: RPMI-8226 11 µM | MCF7 10.3 µM | K562 8.28 µM | SK-MEL-2 > 25 µM | MOLT-4 6.07 µM | PC-3 > 25 µM | SNB-19 > 25 µM | SW-620 7.93 µM | 786-0 11.5 µM | NCI-H522 3.86 µM | A549 > 25 µM | OVCAR-8 > 25 µM | SN12C > 25 µM | NCI-H23 > 25 µM | NCI-H226 18.5 µM | UACC-257 10.4 µM | SK-MEL-28 > 25 µM | RXF 393 9.62 µM | KM12 17.9 µM

CC(C)(C)[C@H]1NC(=O)CN1C(=O)OCc1ccccc1
inactive: RPMI-8226 87.7 µM | MCF7 > 100 µM | K562 66.7 µM | SK-MEL-2 > 100 µM | MOLT-4 > 100 µM | PC-3 36.7 µM | SNB-19 > 100 µM | SW-620 > 100 µM | 786-0 > 100 µM | NCI-H522 > 100 µM | A549 > 100 µM | OVCAR-8 > 100 µM | SN12C > 100 µM | NCI-H23 > 100 µM | NCI-H226 > 100 µM | UACC-257 98.9 µM | SK-MEL-28 > 100 µM | RXF 393 > 100 µM | KM12 > 100 µM

COC(=O)c1ccccc1C1CN=NC12Cc1c(C)cccc1C2=O (centres undefined)
inactive: RPMI-8226 > 100 µM | MCF7 > 100 µM | K562 > 100 µM | SK-MEL-2 48.3 µM | MOLT-4 69.5 µM | Hs-578T > 100 µM | SNB-19 > 100 µM | SW-620 > 100 µM | 786-0 > 100 µM | NCI-H522 > 100 µM | A549 61.5 µM | OVCAR-8 > 100 µM | SN12C > 100 µM | NCI-H23 > 100 µM | NCI-H226 > 100 µM | UACC-257 > 100 µM | SK-MEL-28 > 100 µM | RXF 393 > 100 µM | KM12 > 100 µM

Cc1nn(C(=O)Cc2ccccc2)c2c1C(c1ccc(O)cc1O)SC(=N)N2 (centres undefined)
inactive: RPMI-8226 > 100 µM | MCF7 > 100 µM | MOLT-4 > 100 µM | PC-3 > 100 µM | Hs-578T > 100 µM | SNB-19 > 100 µM | SW-620 > 100 µM | 786-0 > 100 µM | NCI-H522 > 100 µM | A549 > 100 µM | OVCAR-8 > 100 µM | SN12C > 100 µM | NCI-H23 > 100 µM | NCI-H226 > 100 µM | UACC-257 > 100 µM | SK-MEL-28 > 100 µM | KM12 > 100 µM

From ChEMBL document CHEMBL1201862, “PubChem BioAssay data set” (2004)
